# Values of other authors in US9320732B2, “1,2,5-oxadiazoles as inhibitors of indoleamine 2,3-dioxygenase” (Incyte Corporation, priority 2008, dated 2016).
# Experiments:
# P815 tumor = conditions: immune-competent pre-immunized mice
# LLC tumors = conditions: C57Bl/6 mice, versus placebo
# [1] = test system: allogeneic concepti in pregnant mice; conditions: pregnant mice exposed to 1MT
smiles,measurement,setting,value
"Cn1cc(C[C@H](N)C(=O)O)c2ccccc21 [Example 1-MT, 1-methyl-tryptophan]",growth of tumors in pre-immunization model,P815 tumor,inhibited
same,formation of LLC tumors,LLC tumors,markedly delayed
same,rejection of allogeneic concepti,[1],"rapid, T cell-induced rejection of all allogeneic concepti"
